# Experiments:
# Experiment in all cases: Dundee protein kinase screen
# Assay type in all cases: biochemical
# MST4 = MST4 (Homo sapiens, UniProt Q9P289); conditions: MST4, 1µM; read-out: %Remaining activity at 1µM NU6300
# Procedure: (§1) Prior to determining its cellular activity, we carried out a screen to assess its selectivity against a panel of 131 protein kinases under conditions that would not distinguish between a reversible or irreversible mode of action. […] These 13 kinases and 29 additional kinases, selected for their known sensitivity to other inhibitors within the purine series, were then tested in a modified screening format in which the assay was repeated following a 4-hr pre-incubation (Table S3B). […] However, conformational flexibility around the active site may promote such an interaction with a residue from another part of the structure ([Martin et al., 2012]).
# (§2) Table S3, Related to Figure 4. NCL-0006300 protein kinase selectivity. (A) NU6300 was tested at a single concentration of 1µM against 131 protein kinases present in a Dundee protein kinase screen (Bain et al., 2007). Values given are % activity remaining and are the average of duplicate measurements: 0-25% (red), 26-50% (yellow), 51-80% […]
# (§3) (black) and above 81% (green). […]
# SRPK1 = SRPK1 (Homo sapiens, UniProt Q96SB4); conditions: SRPK1, 1µM; read-out: %Remaining activity at 1µM NU6300
# Procedure: as §1, §2, §3
# ROCK 2 = ROCK 2 (Homo sapiens, UniProt O75116); conditions: ROCK 2, 1µM; read-out: %Remaining activity at 1µM NU6300
# Sequence of ROCK 2 (O75116 whole entry): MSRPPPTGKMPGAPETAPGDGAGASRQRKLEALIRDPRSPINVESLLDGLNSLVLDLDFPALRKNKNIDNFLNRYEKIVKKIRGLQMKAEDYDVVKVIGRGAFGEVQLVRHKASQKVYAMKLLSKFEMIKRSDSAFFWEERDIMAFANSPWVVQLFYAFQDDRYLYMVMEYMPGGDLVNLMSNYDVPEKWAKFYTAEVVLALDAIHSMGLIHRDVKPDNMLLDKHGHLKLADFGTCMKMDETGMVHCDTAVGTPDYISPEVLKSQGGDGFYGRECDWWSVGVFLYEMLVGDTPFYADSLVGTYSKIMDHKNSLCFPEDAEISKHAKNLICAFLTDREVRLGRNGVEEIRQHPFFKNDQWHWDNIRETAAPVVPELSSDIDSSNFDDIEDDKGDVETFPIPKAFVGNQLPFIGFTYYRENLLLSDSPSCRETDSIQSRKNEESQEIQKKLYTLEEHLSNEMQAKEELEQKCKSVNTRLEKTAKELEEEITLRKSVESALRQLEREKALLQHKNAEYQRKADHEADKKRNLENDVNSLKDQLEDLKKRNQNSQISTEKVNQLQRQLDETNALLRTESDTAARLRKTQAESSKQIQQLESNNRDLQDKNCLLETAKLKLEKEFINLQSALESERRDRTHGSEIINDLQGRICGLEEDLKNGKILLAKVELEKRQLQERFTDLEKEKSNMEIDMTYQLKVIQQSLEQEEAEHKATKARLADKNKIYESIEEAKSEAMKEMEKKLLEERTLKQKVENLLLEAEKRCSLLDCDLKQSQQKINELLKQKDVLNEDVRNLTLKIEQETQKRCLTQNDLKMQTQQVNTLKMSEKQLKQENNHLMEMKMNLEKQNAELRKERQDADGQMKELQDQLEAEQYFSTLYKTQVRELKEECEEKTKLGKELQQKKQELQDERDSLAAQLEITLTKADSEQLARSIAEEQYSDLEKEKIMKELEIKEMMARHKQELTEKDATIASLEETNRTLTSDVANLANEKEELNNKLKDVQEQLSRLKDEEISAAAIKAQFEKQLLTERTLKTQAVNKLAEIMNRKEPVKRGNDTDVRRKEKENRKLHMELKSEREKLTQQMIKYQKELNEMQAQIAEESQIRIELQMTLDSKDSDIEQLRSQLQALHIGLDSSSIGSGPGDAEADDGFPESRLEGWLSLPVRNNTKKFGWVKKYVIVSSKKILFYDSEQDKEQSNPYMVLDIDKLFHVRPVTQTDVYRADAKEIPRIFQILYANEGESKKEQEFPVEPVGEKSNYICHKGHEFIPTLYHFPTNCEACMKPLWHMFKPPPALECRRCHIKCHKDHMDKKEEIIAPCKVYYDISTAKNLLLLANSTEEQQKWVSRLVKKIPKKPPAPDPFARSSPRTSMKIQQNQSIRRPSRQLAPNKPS
# Procedure: as §1, §2, §3
# WNK1 = WNK1 (Homo sapiens, UniProt Q9H4A3); conditions: WNK1, 1µM; read-out: %Remaining activity at 1µM NU6300
# Sequence of WNK1 (Q9H4A3 whole entry): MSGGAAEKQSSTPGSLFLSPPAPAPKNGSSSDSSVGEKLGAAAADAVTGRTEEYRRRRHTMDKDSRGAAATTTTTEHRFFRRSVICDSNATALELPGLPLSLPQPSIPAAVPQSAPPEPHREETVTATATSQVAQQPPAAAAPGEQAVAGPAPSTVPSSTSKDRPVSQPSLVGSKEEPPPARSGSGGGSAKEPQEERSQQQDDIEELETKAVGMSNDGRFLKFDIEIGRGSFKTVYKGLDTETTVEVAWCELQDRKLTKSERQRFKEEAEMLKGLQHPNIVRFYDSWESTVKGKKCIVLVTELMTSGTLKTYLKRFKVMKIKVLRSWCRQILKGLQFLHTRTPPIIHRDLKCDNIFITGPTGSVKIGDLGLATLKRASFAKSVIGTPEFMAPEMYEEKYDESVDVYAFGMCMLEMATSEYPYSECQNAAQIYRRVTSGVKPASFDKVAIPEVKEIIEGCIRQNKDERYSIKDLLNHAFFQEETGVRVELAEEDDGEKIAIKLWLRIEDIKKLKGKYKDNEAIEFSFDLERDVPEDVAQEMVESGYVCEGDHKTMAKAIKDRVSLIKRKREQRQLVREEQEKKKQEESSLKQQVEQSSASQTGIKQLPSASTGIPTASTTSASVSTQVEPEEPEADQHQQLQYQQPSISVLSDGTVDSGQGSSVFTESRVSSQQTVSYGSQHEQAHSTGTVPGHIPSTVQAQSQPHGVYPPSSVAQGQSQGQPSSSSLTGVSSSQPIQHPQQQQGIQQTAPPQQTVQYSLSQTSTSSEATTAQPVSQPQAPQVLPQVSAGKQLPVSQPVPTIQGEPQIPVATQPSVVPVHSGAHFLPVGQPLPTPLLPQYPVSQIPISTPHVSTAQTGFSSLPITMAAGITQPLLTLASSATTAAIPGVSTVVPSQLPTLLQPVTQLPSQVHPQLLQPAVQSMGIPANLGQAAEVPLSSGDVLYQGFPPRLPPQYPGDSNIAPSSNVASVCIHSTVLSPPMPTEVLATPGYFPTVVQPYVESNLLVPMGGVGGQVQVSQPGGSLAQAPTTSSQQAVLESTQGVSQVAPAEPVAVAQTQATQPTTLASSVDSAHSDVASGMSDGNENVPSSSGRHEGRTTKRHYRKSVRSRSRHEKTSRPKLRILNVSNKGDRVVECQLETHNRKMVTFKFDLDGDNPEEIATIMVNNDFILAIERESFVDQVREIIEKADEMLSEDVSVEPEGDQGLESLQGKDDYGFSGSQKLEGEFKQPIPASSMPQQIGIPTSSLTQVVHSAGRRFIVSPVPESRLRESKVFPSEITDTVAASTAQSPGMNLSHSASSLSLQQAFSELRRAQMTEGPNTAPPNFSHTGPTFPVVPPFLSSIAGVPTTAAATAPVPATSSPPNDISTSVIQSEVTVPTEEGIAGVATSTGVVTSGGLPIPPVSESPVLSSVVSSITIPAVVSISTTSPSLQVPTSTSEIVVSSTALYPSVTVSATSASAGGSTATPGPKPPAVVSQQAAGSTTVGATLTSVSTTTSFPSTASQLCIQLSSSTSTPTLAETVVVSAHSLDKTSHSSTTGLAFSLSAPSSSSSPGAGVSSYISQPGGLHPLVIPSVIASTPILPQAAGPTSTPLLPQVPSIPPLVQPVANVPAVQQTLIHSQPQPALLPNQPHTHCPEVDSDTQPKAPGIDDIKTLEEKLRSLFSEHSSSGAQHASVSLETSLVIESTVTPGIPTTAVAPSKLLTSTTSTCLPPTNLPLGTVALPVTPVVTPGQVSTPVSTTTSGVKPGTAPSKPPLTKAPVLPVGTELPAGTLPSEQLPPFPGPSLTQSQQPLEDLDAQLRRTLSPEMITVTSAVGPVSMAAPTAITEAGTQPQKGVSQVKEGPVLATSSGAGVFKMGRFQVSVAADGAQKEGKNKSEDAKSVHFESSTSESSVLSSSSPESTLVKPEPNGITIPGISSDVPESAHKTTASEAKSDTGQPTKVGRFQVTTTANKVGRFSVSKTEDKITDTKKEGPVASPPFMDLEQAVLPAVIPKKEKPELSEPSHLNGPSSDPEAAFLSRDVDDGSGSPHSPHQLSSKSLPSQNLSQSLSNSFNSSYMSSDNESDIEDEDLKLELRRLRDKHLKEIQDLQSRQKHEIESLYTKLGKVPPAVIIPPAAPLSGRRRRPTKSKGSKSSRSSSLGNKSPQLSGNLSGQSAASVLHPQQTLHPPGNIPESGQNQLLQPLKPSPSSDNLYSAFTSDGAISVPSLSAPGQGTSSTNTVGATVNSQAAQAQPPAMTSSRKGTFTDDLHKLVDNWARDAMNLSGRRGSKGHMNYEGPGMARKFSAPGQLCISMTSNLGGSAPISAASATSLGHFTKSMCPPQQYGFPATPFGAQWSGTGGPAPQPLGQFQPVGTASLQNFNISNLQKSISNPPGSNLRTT
# Procedure: as §1, §2, §3
# p38β MAPK = p38β MAPK (Homo sapiens, UniProt Q15759); conditions: read-out: %Remaining activity at 1µM NU6300
# Procedure: as §1, §2, §3
# MST3 = MST3 (Homo sapiens, UniProt Q9Y6E0); conditions: MST3, 1µM; read-out: %Remaining activity at 1µM NU6300
# Procedure: as §1, §2, §3
# TESK1 = TESK1 (Homo sapiens, UniProt Q15569); conditions: TESK1, 1µM; read-out: %Remaining activity at 1µM NU6300
# Sequence of TESK1 (Q15569 whole entry): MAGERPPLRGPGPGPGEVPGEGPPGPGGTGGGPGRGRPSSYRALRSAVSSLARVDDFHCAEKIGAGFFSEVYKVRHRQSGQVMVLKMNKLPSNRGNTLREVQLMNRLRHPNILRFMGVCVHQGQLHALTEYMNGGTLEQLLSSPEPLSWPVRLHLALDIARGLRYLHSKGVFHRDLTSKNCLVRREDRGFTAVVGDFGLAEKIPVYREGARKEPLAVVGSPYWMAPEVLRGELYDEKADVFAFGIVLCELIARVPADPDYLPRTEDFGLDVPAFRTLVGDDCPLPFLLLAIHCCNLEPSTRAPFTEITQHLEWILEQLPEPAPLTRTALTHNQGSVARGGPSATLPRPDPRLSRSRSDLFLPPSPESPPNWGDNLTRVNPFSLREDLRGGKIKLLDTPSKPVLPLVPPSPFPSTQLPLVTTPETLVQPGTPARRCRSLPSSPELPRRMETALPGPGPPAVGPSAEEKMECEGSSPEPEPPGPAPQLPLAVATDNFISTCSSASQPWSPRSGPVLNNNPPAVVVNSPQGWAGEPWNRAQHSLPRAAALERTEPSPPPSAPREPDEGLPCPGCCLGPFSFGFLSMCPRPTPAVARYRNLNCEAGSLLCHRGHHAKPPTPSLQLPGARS
# Procedure: as §1, §2, §3
# PAK5 = PAK5 (Homo sapiens, UniProt Q9P286); conditions: PAK5, 1µM; read-out: %Remaining activity at 1µM NU6300
# Procedure: as §1, §2, §3
# Src = Src (Homo sapiens, UniProt P12931); conditions: read-out: %Remaining activity at 1µM NU6300
# Procedure: as §1, §2, §3
# SIK2 = SIK2 (Homo sapiens, UniProt Q9H0K1); conditions: SIK2, 1µM; read-out: %Remaining activity at 1µM NU6300
# Procedure: as §1, §2, §3
# PIM2 = PIM2 (Homo sapiens, UniProt Q9P1W9); conditions: PIM2, 1µM; read-out: %Remaining activity at 1µM NU6300
# Procedure: as §1, §2, §3
# PKBβ = PKBβ (Homo sapiens, UniProt P31751); conditions: read-out: %Remaining activity at 1µM NU6300
# Procedure: as §1, §2, §3
# PHK = system: PHK
# Procedure: as §1, §2, §3
# TTK = target: T1, TTK (Homo sapiens, UniProt P33981); conditions: read-out: %Remaining activity at 1µM NU6300
# T1 sequence (P33981 1-857): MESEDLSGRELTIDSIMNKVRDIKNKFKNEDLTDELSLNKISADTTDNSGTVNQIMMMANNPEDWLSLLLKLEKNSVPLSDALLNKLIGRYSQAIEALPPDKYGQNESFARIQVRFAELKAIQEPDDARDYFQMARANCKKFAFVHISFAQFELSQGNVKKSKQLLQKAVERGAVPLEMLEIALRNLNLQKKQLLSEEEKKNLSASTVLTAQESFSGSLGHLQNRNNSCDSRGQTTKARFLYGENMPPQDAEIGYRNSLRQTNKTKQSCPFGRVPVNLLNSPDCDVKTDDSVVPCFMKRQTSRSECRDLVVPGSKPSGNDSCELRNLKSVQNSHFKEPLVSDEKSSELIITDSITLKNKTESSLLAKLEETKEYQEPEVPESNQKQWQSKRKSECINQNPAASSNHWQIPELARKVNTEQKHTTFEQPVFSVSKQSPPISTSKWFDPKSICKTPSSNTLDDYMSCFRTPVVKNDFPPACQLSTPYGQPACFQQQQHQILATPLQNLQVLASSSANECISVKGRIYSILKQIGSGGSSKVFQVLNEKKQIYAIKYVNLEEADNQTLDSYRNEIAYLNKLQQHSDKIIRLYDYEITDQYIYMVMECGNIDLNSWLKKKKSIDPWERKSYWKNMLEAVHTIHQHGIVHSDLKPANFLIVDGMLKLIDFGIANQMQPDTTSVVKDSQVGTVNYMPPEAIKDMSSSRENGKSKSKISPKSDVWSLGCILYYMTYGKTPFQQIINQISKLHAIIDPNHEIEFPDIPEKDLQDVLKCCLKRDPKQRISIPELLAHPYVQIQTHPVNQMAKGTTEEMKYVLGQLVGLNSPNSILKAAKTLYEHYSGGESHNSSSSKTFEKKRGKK
# Procedure: as §1, §2, §3
# PIM1 = PIM1 (Homo sapiens, UniProt P11309); conditions: PIM1, 1µM; read-out: %Remaining activity at 1µM NU6300
# Procedure: as §1, §2, §3
# PKD1 = PKD1 (Homo sapiens, UniProt Q15139); conditions: PKD1, 1µM; read-out: %Remaining activity at 1µM NU6300
# Procedure: as §1, §2, §3
# MNK2 = MNK2 (Homo sapiens, UniProt Q9HBH9); conditions: MNK2, 1µM; read-out: %Remaining activity at 1µM NU6300
# Sequence of MNK2 (Q9HBH9 whole entry): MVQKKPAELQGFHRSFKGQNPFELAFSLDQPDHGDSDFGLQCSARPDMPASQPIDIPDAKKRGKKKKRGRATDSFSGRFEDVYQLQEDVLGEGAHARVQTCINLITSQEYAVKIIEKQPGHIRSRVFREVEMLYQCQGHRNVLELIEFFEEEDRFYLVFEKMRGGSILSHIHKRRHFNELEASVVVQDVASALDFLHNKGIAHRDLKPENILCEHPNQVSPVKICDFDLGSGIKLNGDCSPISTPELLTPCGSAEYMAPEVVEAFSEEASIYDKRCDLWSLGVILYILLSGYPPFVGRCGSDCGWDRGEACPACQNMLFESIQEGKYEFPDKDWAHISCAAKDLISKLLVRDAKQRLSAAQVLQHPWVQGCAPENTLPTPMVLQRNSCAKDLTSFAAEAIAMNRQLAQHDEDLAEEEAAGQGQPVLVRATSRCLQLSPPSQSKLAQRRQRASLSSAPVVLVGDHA
# Procedure: as §1, §2, §3
# RSK2 = RSK2 (Homo sapiens, UniProt P51812); conditions: RSK2, 1µM; read-out: %Remaining activity at 1µM NU6300
# Procedure: as §1, §2, §3
compound,measurement,setting,value
"C=CS(=O)(=O)c1ccc(Nc2nc(OCC3CCCCC3)c3nc[nH]c3n2)cc1 [NU6300, 6-(cyclohexylmethoxy)-N-(4-(vinylsulfonyl)phenyl)-9H-purin-2-amine]",remaining activity at 1 µM,MST4,39%
same,remaining activity at 1 µM,SRPK1,71%
same,remaining activity at 1 µM,ROCK 2,25%
same,remaining activity at 1 µM,WNK1,103%
same,remaining activity at 1 µM,p38β MAPK,67%
same,remaining activity at 1 µM,MST3,54%
same,remaining activity at 1 µM,TESK1,78%
same,remaining activity at 1 µM,PAK5,48%
same,remaining activity at 1 µM,Src,39%
same,remaining activity at 1 µM,SIK2,22%
same,remaining activity at 1 µM,PIM2,96%
same,remaining activity at 1 µM,PKBβ,89%
same,%Remaining activity at 1µM NU6300,PHK,69%
same,remaining activity at 1 µM,TTK,29%
same,remaining activity at 1 µM,PIM1,84%
same,remaining activity at 1 µM,PKD1,55%
same,remaining activity at 1 µM,MNK2,91%
same,remaining activity at 1 µM,RSK2,54%

# From PMC4579270, “Identification and Characterization of an Irreversible Inhibitor of CDK2” (Chemistry & Biology, 2015)
